Assays:
[1] = system: Cryptostegia grandiflora (Rubber vine); parameters: key: X indicates that the given herbicide is suitable for controlling the given weed; conditions: cited from earlier work
Mimosa pigra (Mimosa) = system: Mimosa pigra (Mimosa); parameters: key: X indicates that the given herbicide is suitable for controlling the given weed; conditions: cited from earlier work
[2] = system: Vachellia nilotica (Prickly acacia); parameters: key: X indicates that the given herbicide is suitable for controlling the given weed; conditions: cited from earlier work
Acacia spp (Wattles) = system: Acacia spp (Wattles); parameters: key: X indicates that the given herbicide is suitable for controlling the given weed; conditions: cited from earlier work
[3] = system: Parkinsonia aculeata (Parkinsonia); parameters: key: X indicates that the given herbicide is suitable for controlling the given weed; conditions: cited from earlier work
[4] = system: Eucalyptus spp (Box, Eucalypt); parameters: key: X indicates that the given herbicide is suitable for controlling the given weed; conditions: cited from earlier work
[5] = system: western white gum (Eucalyptus argophloia); assay: Example 2: glyphosate and hexazinone capsules, thinning trial in western white gum plantation
Method: The trial for this example was established at the HQP plantation near Jandowae on 6 Feb. 2018. The trees were planted in rows 4 m apart at 1.5 m spacing. Trees were 6-10 m tall. Trees to be maintained were marked and the other trees were treated.
Four treatments were used, with capsules as follows:
The capsules used were HPMC Size 0 Natural TR.V700 colour cap and body Vcaps (Suzhou Capsugel® Ltd, China). Capsules were hand packed using a Capsugel Profiller apparatus (https://www.capsugel.com/biopharmaceutical-products/profiller). An embodiment of apparatus 10 adapted to include handle 2201 (FIG. 17) was used to drill a hole into the stem, insert the herbicide capsule and seal with a wooden plug.
Herbicide capsules were applied to approximately 10 trees for each of the treatments. The number of capsules applied to each tree was independent of tree circumference which was measured at chest height. The tree circumferences range was from 20 to 34 centimetres. At 4 weeks, a small sample of trees were cut down with a chainsaw and cross-sections of stems containing the sites of insertion of the herbicide capsules removed. These stem pieces were returned to the laboratory and split open longitudinally through the insertion point. Tree health was assessed at 11 weeks (24 Apr. 2018) on a 0-4 scale with 0 being dead and 4 being healthy. Observations were made for evidence of flashback in untreated trees.

[6] = system: Ailanthus altissima (Tree-of-heaven); parameters: key: X indicates that the given herbicide is suitable for controlling the given weed; conditions: cited from earlier work
[7] = system: Lycium ferocissium (African boxthom); parameters: key: X indicates that the given herbicide is suitable for controlling the given weed; conditions: cited from earlier work
[8] = system: Harungana madagarcariensis (Harungana); parameters: key: X indicates that the given herbicide is suitable for controlling the given weed; conditions: cited from earlier work
[9] = system: Cascabela thevetia (Yellow oleander); parameters: key: X indicates that the given herbicide is suitable for controlling the given weed; conditions: cited from earlier work
Phoenix spp (Palms) = system: Phoenix spp (Palms); parameters: key: X indicates that the given herbicide is suitable for controlling the given weed; conditions: cited from earlier work
[10] = system: Tamarix aphylla (Athel pine); parameters: key: X indicates that the given herbicide is suitable for controlling the given weed; conditions: cited from earlier work
[11] = system: Schinus terebinthifolius (Broad-leafed pepper tree); parameters: key: X indicates that the given herbicide is suitable for controlling the given weed; conditions: cited from earlier work
[12] = system: Ligustrum lucidum (Broad leaf privet); parameters: key: X indicates that the given herbicide is suitable for controlling the given weed; conditions: cited from earlier work
[13] = system: Ligustrum sinense (Chinese privet); parameters: key: X indicates that the given herbicide is suitable for controlling the given weed; conditions: cited from earlier work
[14] = system: Chamaecytisus palmensis (Tree lucerne); parameters: key: X indicates that the given herbicide is suitable for controlling the given weed; conditions: cited from earlier work
Angophora spp (Apple) = system: Angophora spp (Apple); parameters: key: X indicates that the given herbicide is suitable for controlling the given weed; conditions: cited from earlier work
[15] = system: Senna pendula (Winter senna); parameters: key: X indicates that the given herbicide is suitable for controlling the given weed; conditions: cited from earlier work
[16] = system: Bursaria spinosa (Australian blackthorn); parameters: key: X indicates that the given herbicide is suitable for controlling the given weed; conditions: cited from earlier work
Lantana camara (Lantana) = system: Lantana camara (Lantana); parameters: key: X indicates that the given herbicide is suitable for controlling the given weed; conditions: cited from earlier work
[17] = system: Caesalpinia decapetala (Thorny poinciana); parameters: key: X indicates that the given herbicide is suitable for controlling the given weed; conditions: cited from earlier work
[18] = system: Jatropha gossypiifolia (Bellyache bush); parameters: key: X indicates that the given herbicide is suitable for controlling the given weed; conditions: cited from earlier work
[19] = system: Rubus anglocandicans (Blackberry); parameters: key: X indicates that the given herbicide is suitable for controlling the given weed; conditions: cited from earlier work
[20] = system: Leptospermum spp. (Tea trees); parameters: key: X indicates that the given herbicide is suitable for controlling the given weed; conditions: cited from earlier work
[21] = system: Solanum mauritianum (Wild tobacco tree); parameters: key: X indicates that the given herbicide is suitable for controlling the given weed; conditions: cited from earlier work
[22] = system: Ziziphus mauritania (Chinee apple); parameters: key: X indicates that the given herbicide is suitable for controlling the given weed; conditions: cited from earlier work
[23] = system: Azadirachta indica (Neem); parameters: key: X indicates that the given herbicide is suitable for controlling the given weed; conditions: cited from earlier work
Salix species (Willows) = system: Salix species (Willows); parameters: key: X indicates that the given herbicide is suitable for controlling the given weed; conditions: cited from earlier work
[24] = system: Senegalia catechu (Cutch tree); parameters: key: X indicates that the given herbicide is suitable for controlling the given weed; conditions: cited from earlier work
[25] = system: Leucaena leucocephala (Leucaena); parameters: key: X indicates that the given herbicide is suitable for controlling the given weed; conditions: cited from earlier work
[26] = system: Crataegus sinaica (Azarola); parameters: key: X indicates that the given herbicide is suitable for controlling the given weed; conditions: cited from earlier work
[27] = system: Olea europea sbsp africana (African olive); parameters: key: X indicates that the given herbicide is suitable for controlling the given weed; conditions: cited from earlier work
Prosopis spp (Mesquite) = system: Prosopis spp (Mesquite); parameters: key: X indicates that the given herbicide is suitable for controlling the given weed; conditions: cited from earlier work
[28] = system: Ricinus communis (Castor oil plant); parameters: key: X indicates that the given herbicide is suitable for controlling the given weed; conditions: in vivo; cited from earlier work
[29] = system: Banksia spp (Bottlebrush); parameters: key: X indicates that the given herbicide is suitable for controlling the given weed; conditions: cited from earlier work
[30] = system: Cinnamonum camphora (Camphor laurel); parameters: key: X indicates that the given herbicide is suitable for controlling the given weed; conditions: cited from earlier work
[31] = system: Cestrum parqui (Green cestrum); parameters: key: X indicates that the given herbicide is suitable for controlling the given weed; conditions: cited from earlier work
Acer negudo (Box elder) = system: Acer negudo (Box elder); parameters: key: X indicates that the given herbicide is suitable for controlling the given weed; conditions: cited from earlier work
[32] = system: Olea europea sbsp europa (European olive); parameters: key: X indicates that the given herbicide is suitable for controlling the given weed; conditions: cited from earlier work

COc1c(Cl)ccc(Cl)c1C(=O)O [Dicamba]
X: suitability of herbicide for control of weed [1] | suitability of herbicide for control of weed (Mimosa pigra (Mimosa))

CN(C)C(=O)Nc1ccc(Cl)c(Cl)c1 [Diuron]
X: suitability of herbicide for control of weed [2]

CN(C)c1nc(=O)n(C2CCCCC2)c(=O)n1C [Hexazinone]
obvious deterioration in plant health: plant health (yellowing of the foliage) ([5]; Eucalyptus argophloia, 11 weeks, 1 or 2 capsules per tree)
only a small percentage of trees killed: trees died / killed (health rating 0-4 scale, 0 dead) ([5]; Eucalyptus argophloia, 11 weeks post treatment, 1 or 2 capsules per tree)
no flashback was observed: flashback in the trees marked for retention ([5]; in vivo)
X: suitability of herbicide for control of weed (Acacia spp (Wattles)) | suitability of herbicide for control of weed [1] | suitability of herbicide for control of weed [3] | suitability of herbicide for control of weed [4] | suitability of herbicide for control of weed [2] | suitability of herbicide for control of weed [6] | suitability of herbicide for control of weed [7]

CC(C)C1(C)N=C(c2ncccc2C(=O)O)NC1=O (centres unmarked) [Imazapyr]
X: suitability of herbicide for control of weed [8] | suitability of herbicide for control of weed [1] | suitability of herbicide for control of weed [9] | suitability of herbicide for control of weed (Phoenix spp (Palms)) | suitability of herbicide for control of weed [10] | suitability of herbicide for control of weed [11] | suitability of herbicide for control of weed [6]

COC(=O)c1ccccc1S(=O)(=O)NC(=O)Nc1nc(C)nc(OC)n1 [Metsulfuron-methyl]
X: suitability of herbicide for control of weed [12] | suitability of herbicide for control of weed [13] | suitability of herbicide for control of weed [8] | suitability of herbicide for control of weed [14] | suitability of herbicide for control of weed (Acacia spp (Wattles)) | suitability of herbicide for control of weed [1] | suitability of herbicide for control of weed (Angophora spp (Apple)) | suitability of herbicide for control of weed [4] | suitability of herbicide for control of weed [15] | suitability of herbicide for control of weed [6] | suitability of herbicide for control of weed [16] | suitability of herbicide for control of weed (Lantana camara (Lantana)) | suitability of herbicide for control of weed [17] | suitability of herbicide for control of weed [18] | suitability of herbicide for control of weed [19] | suitability of herbicide for control of weed (Mimosa pigra (Mimosa))

Nc1c(Cl)c(Cl)nc(C(=O)O)c1Cl [Picloram]
X: suitability of herbicide for control of weed [12] | suitability of herbicide for control of weed [14] | suitability of herbicide for control of weed (Acacia spp (Wattles)) | suitability of herbicide for control of weed [20] | suitability of herbicide for control of weed [21] | suitability of herbicide for control of weed [22] | suitability of herbicide for control of weed [11] | suitability of herbicide for control of weed [23] | suitability of herbicide for control of weed (Salix species (Willows)) | suitability of herbicide for control of weed [7] | suitability of herbicide for control of weed [24] | suitability of herbicide for control of weed (Lantana camara (Lantana)) | suitability of herbicide for control of weed [25] | suitability of herbicide for control of weed [19]

O=C(O)COc1nc(Cl)c(Cl)cc1Cl [Triclopyr]
X: suitability of herbicide for control of weed [12] | suitability of herbicide for control of weed [13] | suitability of herbicide for control of weed (Acacia spp (Wattles)) | suitability of herbicide for control of weed [1] | suitability of herbicide for control of weed [26] | suitability of herbicide for control of weed (Angophora spp (Apple)) | suitability of herbicide for control of weed [4] | suitability of herbicide for control of weed [22] | suitability of herbicide for control of weed [27] | suitability of herbicide for control of weed [2] | suitability of herbicide for control of weed (Phoenix spp (Palms)) | suitability of herbicide for control of weed [10] | suitability of herbicide for control of weed (Prosopis spp (Mesquite)) | suitability of herbicide for control of weed [11] | suitability of herbicide for control of weed [28] | suitability of herbicide for control of weed [23] | suitability of herbicide for control of weed [29] | suitability of herbicide for control of weed [30] | suitability of herbicide for control of weed [31] | suitability of herbicide for control of weed [6] | suitability of herbicide for control of weed [7] | suitability of herbicide for control of weed [24] | suitability of herbicide for control of weed [16] | suitability of herbicide for control of weed (Lantana camara (Lantana)) | suitability of herbicide for control of weed (Acer negudo (Box elder)) | suitability of herbicide for control of weed [32] | suitability of herbicide for control of weed [19]

From patent US11259516B2, “Method and apparatus for capsular delivery to plants” (priority 2017, dated 2022)
